# Measurements reported in article PMC11356900, “Synthesis, Structural Properties and Biological Activities of Novel Hydrazones of 2-, 3-, 4-Iodobenzoic Acid” (Molecules, 2024).
# Assays:
# Candida spp. = experiment: Broth microdilution, summary over reference yeasts; assay type: cell-based; conditions: for MFC / MFC/MIC / MIC: range over the reference Candida spp. strains; for antifungal activity in words: reference yeasts from Candida spp.
# Excerpt: (§1) Procedures of in vitro antimicrobial assays are described in Supplementary Materials.
# (§2) 2. Microbiology – in vitro antimicrobial activity assays […]
# (§3) using the broth microdilution method according to the European Committee on Antimicrobial Susceptibility Testing (EUCAST) and Clinical and Laboratory Standards Institute guidelines against a panel of reference and clinical or saprophytic strains of mi croorganisms, including the Gram-positive bacteria: Staphylococcus aureus ATCC 43300 (Methi-cillin Resistant S. aureus – MRSA), Staphylococcus aureus ATCC 29213 (Methicillin Susceptible S. aureus – MSSA), Staph-ylococcus epidermidis ATCC 12228, Micrococcus luteus ATCC 10240, Bacillus subtilis ATCC 6633 and Bacillus cereus ATCC 10876), Gram-negative bacteria: Bordetella bronchiseptica ATCC 4617, Escherichia coli ATCC 25922, Klebsiella pneumoniae ATCC 13883, Proteus mirabilis ATCC 12453, Salmonella typhimurium ATCC 14028 and Pseudomonas aeruginosa ATCC 9027, and fungi belonging to yeasts: Candida albicans ATCC 10231, Candida albicans ATCC 2091, Candida parapsilosis ATCC 22019, Candida glabrata ATCC 90030 and Candida krusei ATCC 14243. The microorganisms belonging to ATCC originated from American Type Culture Collection, routinely used for the evaluation of antimicrobials. All the used microbial cultures were first subcultured on nutrient agar or Sabouraud agar at 35°C for 18-24 h or 30°C for 24-48 h for bacteria […]
# (§4) The surface of Mueller-Hinton agar (for bacteria) and RPMI 1640 with MOPS (for fungi) were inoculated with the suspensions of bacterial or fungal species. Microbial suspensions were prepared in sterile saline with an optical density of McFarland standard scale 0.5. The samples containing the compounds were dissolved in dimethyl sulfoxide (DMSO).
# Furthermore, the bacterial and fungal suspensions put onto the Petri dishes with solid media containing 2 mg/mL of the tested compounds followed were incubated at 37°C for 24h and 30°C for 48h for bacteria and fungi, respectively.
# The inhibition of microbial growth was estimated comparing with a control culture prepared without any tested sam- […]
# antifungal compounds, respectively.
# Subsequently, MIC (Minimal Inhibitory Concentration) of the compounds was examined by the microdilution broth method, using their two-fold dilutions in Mueller-Hinton broth (for bacteria) and RPMI 1640 broth with MOPS (for fungi) prepared in the 96-well polystyrene plates. The final concentrations of the compounds ranged from 1000 to 0.488 µg/mL. Microbial suspensions were prepared in 0.85% NaCl with an optical density of 0.5 McFarland standard. Next each bacterial or fungal suspension was added per each well containing broth and various concentrations of the exam-ined compounds. After incubation, the MIC was assessed spectrophotometrically as the lowest concentration of the […]
# Appropriate DMSO, growth and sterile controls were carried out. The medium with no tested substances was used as a control The MBC (Minimal Bactericidal Concentration) and MFC (Minimal Fungicidal Concentration) are defined as the lowest concentration of the compounds that is required to kill a particular bacterial or fungal species. The MBC/MFC was determined by removing the culture used for the MIC determination from each well and spotted onto the appro-priate agar medium. The plates were incubated under appropriate conditions for bacteria and fungi. The lowest com-pounds concentration with no visible growth observed was assessed as a bactericidal/fungicidal concentration. All the experiments were repeated three times and the representative data are presented.
# 1. European Committee for Antimicrobial Susceptibility Testing (EUCAST) Determination of minimum inhibitory con-centrations (MICs) of antibacterial agents by broth dilution. EUCAST discussion document E. Dis 5.1. Clin. Microbiol.
# 2. Clinical and Laboratory Standards Institute. Reference method for broth dilution antifungal susceptibility testing of […]
# [1] = test system: Klebsiella pneumoniae ATCC 13883; experiment: Broth microdilution MIC/MBC; conditions: ATCC13883
# Gram-negative bacteria = experiment: Broth microdilution, summary over reference Gram-negative bacteria; assay type: cell-based; conditions: for MIC: range over the reference Gram-negative bacteria; for antibacterial activity in words: reference Gram-negative bacteria
# Excerpt: as §1, §2, §3, §4
# Furthermore, the bacterial and fungal suspensions put onto the Petri dishes with solid media containing 2 mg/mL of the tested compounds followed were incubated at 37°C for 24h and 30°C for 48h for bacteria and fungi, respectively. […]
# Subsequently, MIC (Minimal Inhibitory Concentration) of the compounds was examined by the microdilution broth method, using their two-fold dilutions in Mueller-Hinton broth (for bacteria) and RPMI 1640 broth with MOPS (for fungi) prepared in the 96-well polystyrene plates. […] After incubation, the MIC was assessed spectrophotometrically as the lowest concentration of the […]
# Appropriate DMSO, growth and sterile controls were carried out. […] The MBC/MFC was determined by removing the culture used for the MIC determination from each well and spotted onto the appro-priate agar medium. […] The lowest com-pounds concentration with no visible growth observed was assessed as a bactericidal/fungicidal concentration. […]
# [2] = test system: Staphylococcus aureus ATCC 29213; experiment: Broth microdilution MIC/MBC; conditions: ATCC29213
# MTT cytotoxicity assay = assay type: cell-based, mouse; conditions: mouse, L929 fibroblast cells; L929, 48 h culture, dose of 25 μM; read-out: increased viability
# Experimental: Among all the newly synthesized compounds, four compounds designated as: 14, 20, 21 and 27 were selected for further testing of their cytotoxic properties at the doses of 10, 25, 50, 75 and 100 µM. The cytotoxic properties of the above compounds were tested on the cancer cell lines, i.e., A549 (ECACC 86012804) (non-small-cell lung cancer), T47D (ECACC 85102201) (breast cancer), HeLa (ATCC® CCL-2™) (cervical cancer) and normal line L929 (NCTC clone 929, ATCC® CCL-1™) (mouse fibroblasts) using the MTT test for 24- and 48 h cultures.
# A549 (ECACC 86012804) (non-small-cell lung cancer) and T47D (ECACC 85102201) (breast cancer) were obtained from ECACC and propagated in Dulbecco’s Minimal Essential Medium, supplemented with 2 mM of glutamine, antibiotics ([…] streptomycin, 1% of 100 U/L penicillin) and 10% Fetal Bovine Serum. HeLa (ATCC® CCL-2™) (cervical cancer) and L929 (NCTC clone 929, ATCC® CCL-1™) (mouse fibroblasts) cell lines were obtained from ATCC and propagated in the Eagle Minimal Essential Medium supplemented with antibiotics ([…] streptomycin, 1% of 100 U/L penicillin) and with 10% and 5% FBS, respectively. The cell line was routinely grown in 75 cm^2 tissue culture flasks and kept in an incubator (humidified atmosphere of 5% CO2 at 37 °C). All examined cell lines were tested against mycoplasma contamination with microbiological assays.
# The cell viability of tested compounds (14, 20, 21 and 27) was assessed by the MTT assay. In brief, the exponentially growing cells were plated in 100 μL/well in 96-well plates. After 24 h culturing, the cells were treated with different concentrations of compounds (range 10–100 μM). After 24 and 48 h of incubation, 10 μL of 5 mg/mL MTT was added to each well and the plates were incubated at 37 °C for additional 4 h. The medium was subsequently removed, the purple-colored precipitates of formazan were dissolved in 100 μL of DMSO. The color absorbance was recorded at 570 nm using a BioTek model EPOCH ELISA plate reader. All experiments were performed in triplicate. The absorbance values were in the range of linearity of the Lambert–Beer law.
SMILES,MFC (Candida spp.),MFC/MIC (Candida spp.),MIC (Candida spp.),antifungal activity in words (Candida spp.),MBC [1],MBC/MIC [1],MIC [1],melting point,MIC (Gram-negative bacteria),antibacterial activity in words (Gram-negative bacteria),MBC [2],MIC [2],"viability at 48 h, 25 µM (MTT cytotoxicity assay)"
"O=C(N/N=C/c1cc(Cl)cc(I)c1O)c1ccc(I)cc1 [Compound 27, N-[(5-chloro-2-hydroxy-3-iodophenyl)methylidene]-4-iodobenzohydrazide]",62.5 µg/mL,1–2,31.2 to 62.5 µg/mL,good (good bioactivity as a MIC in the range 26 – 125 µg/mL),> 1000 µg/mL,> 2,500 µg/mL,200 to 201 °C,500 µg/mL,moderate (moderate bioactivity with MIC from 126 to 500 µg/mL),125 µg/mL,62.5 µg/mL,–
"O=C(N/N=C/c1cc(Cl)cc(I)c1O)c1cccc(I)c1 [Compound 20, N-[(5-chloro-2-hydroxy-3-iodophenyl)methylidene]-3-iodobenzohydrazide]",–,> 4,125 to 500 µg/mL,good and moderate,> 1000 µg/mL,> 2,500 µg/mL,205 to 208 °C,500 to 1000 µg/mL,mild or moderate,3.91 µg/mL,3.91 µg/mL,–
"O=C(N/N=C/c1cc(Br)cc(Br)c1O)c1cccc(I)c1 [Compound 21, N-[(3,5-dibromo-2-hydroxyphenyl)methylidene]-3-iodobenzohydrazide]",–,> 4,125 to 500 µg/mL,good and moderate,–,–,> 1000 µg/mL,210 to 211 °C,–,–,15.6 µg/mL,15.6 µg/mL,–
"O=C(N/N=C/c1cc(I)cc(I)c1O)c1ccccc1I [Compound 14, N-[(3,5-diiodo-2-hydroxyphenyl)methylidene]-2-iodobenzohydrazide]",≥ 1000 µg/mL,–,250 to 1000 µg/mL,moderate or mild,–,–,–,241 to 245 °C,–,–,500 µg/mL,125 µg/mL,> 100%
